Drawing on patent US20080125432A1 (Devgen NV, priority 2004, published 2008), this text covers hERG and IC50 for 15 compounds.

For orientation: IC50 means the point on the concentration scale where inhibition reaches its midpoint.

The target of the first data set is T1, hERG potassium channel (Homo sapiens, UniProt Q12809).
T1 construct: host or cells: HEK 293 T-REx
T1 sequence (Q12809 whole entry): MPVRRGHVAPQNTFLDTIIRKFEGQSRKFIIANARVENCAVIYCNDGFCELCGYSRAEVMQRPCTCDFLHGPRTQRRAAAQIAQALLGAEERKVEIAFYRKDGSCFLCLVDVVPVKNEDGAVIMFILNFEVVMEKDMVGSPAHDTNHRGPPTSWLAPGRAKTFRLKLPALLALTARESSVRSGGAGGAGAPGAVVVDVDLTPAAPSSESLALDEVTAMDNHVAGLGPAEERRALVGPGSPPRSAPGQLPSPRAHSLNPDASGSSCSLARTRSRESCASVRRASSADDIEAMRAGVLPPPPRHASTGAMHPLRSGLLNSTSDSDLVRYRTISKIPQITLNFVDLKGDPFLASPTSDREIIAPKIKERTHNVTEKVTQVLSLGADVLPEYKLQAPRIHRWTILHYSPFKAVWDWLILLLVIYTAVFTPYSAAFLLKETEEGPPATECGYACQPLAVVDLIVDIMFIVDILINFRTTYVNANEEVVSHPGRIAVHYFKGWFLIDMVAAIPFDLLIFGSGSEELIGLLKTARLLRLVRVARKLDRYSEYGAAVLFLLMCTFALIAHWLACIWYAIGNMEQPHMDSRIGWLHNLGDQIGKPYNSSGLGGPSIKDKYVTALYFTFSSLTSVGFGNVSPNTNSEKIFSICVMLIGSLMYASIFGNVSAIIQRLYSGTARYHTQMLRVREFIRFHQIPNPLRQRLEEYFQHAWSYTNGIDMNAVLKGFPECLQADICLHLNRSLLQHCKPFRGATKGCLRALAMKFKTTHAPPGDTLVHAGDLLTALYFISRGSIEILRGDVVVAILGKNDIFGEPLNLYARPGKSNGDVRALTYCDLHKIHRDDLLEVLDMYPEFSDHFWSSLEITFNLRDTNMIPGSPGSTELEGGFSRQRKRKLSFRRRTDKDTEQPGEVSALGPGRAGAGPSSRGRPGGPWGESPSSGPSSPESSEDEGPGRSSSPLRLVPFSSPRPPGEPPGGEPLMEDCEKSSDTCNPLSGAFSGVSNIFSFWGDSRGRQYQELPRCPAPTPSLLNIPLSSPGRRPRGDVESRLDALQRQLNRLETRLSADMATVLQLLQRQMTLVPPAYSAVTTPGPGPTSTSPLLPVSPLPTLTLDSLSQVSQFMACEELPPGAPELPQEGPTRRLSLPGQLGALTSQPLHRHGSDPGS
Put plainly: Whole cell patch clamp, HEK 293 T-REx HERG cells. The conditions noted are these: at 1 μM. In kind it is cell-based. The source says: For this experiment HEK 293 T-REx HERG cells (#23) were used. This cell line made by IonGate is characterized by the inducible expression of the hERG gene. The T-REx™ System (Invitrogen, Karlsruhe, Germany) is a tetracycline-regulated mammalian expression system that uses regulatory elements from the E. coli Tn10-encoded tetracycline (Tet) resistance operon. In the absence of Tet the expression is repressed. Tetracycline regulation in the T-REx™ System is based on the binding of tetracycline to the Tet repressor and derepression of the promoter controlling expression of the hERG gene. Addition of Tet to the cell culture media results in expression of the hERG potassium channel.
To construct the HEK 293 T-REx HERG cell line, the hERG gene was ligated into the inducible expression vector pcDNA4/TO (→pc4TO-HERG) and transfected into HEK 293 T-REx cells (this cell line stably expresses the Tet repressor and was purchased at Invitrogen). Stable cell clones were isolated after selection with Blasticidin (5 μg/ml) and Zeocin™ (300 μg/ml). The clones were electrophysiological characterized after induction with 1 μg/ml Tet.
Experiments were performed using the patch clamp set-up. Technical equipment needed for manipulation of the cells was placed on a vibration-isolated table and shielded with a Faraday cage to minimize electrical noise. The amplifier and control system were placed in a rack outside the Faraday cage. The system consisted of an EPC9 or EPC10 patch clamp amplifier (HEKA, Lambrecht, Germany), and the perfusion system DADVC8 (ALA Scientific, New York, USA) controlled by the Pulse software package (HEKA, Lambrecht, Germany) installed on a personal computer.
The cells used for this experiment were kept in continuous culture under standard conditions (37° C., air supplemented with 5% CO2). The HEK 293 T-REx HERG cells were kept in minimal essential medium (MEM) supplemented with 100 U/ml Penicillin, 100 μg/ml Streptomycin, 10% fetal calf serum (FCS), 1% non-essential amino acids (NEAA), 2.5 μg/ml amphotericin, 300 μg/ml Zeocin™ and 5 μg/ml Blasticidin. Cells were passed every 3-4 days after detachment using a Trypsin solution. The quality of the cultured cells was guaranteed by vitality and contamination tests. The culture of the cells was performed as described in protocol D described above.
At least 18 hours prior to electrophysiological experiments the cells were detached by application of iced PBS (phosphate buffered saline) or Trypsin and replated on cover slips. 1 μg/ml Tet was added to the cells to induce hERG expression.
Activity of the cardiac hERG channel was investigated using the patch clamp technique in its whole cell mode. This means that the current needed for clamping the whole cell expressing the K^+-channel protein to a specific potential was measured. The pipettes used for patch clamping were made of borosilicate glass. Measurements were performed at room temperature (20-25° C.). In each experiment (i.e. each cell) only one concentration of the compound was investigated no cumulative dosages were performed. Each cell acted as its own control. […]
After the whole cell configuration was established a series of pulses was applied to check for hERG expression and to optimize amplifier settings. However, only the following measurements were used for data analysis: 15 test pulses (FIG. 4a and Table 6a) were applied at 0.1 Hz (series 1) under constant superfusion with bath solution. The protocol was initiated by a leak test at −40 mV (50 ms). […] The maximum hERG tail current amplitude was measured at −40 mV (tail current test, 1.5 sec.). Only cells generating tail current amplitudes between 300 pA and 10 nA were used for the experimental procedure.
After successful characterization of the current another 10 test pulses were applied at 0.1 Hz while the cell was superfused with bath solution (series 2). […]
As to `Cc1nc(Nc2ccc3occc3c2)sc1C(=O)N[C@H]1CCC[C@@H]1OCc1ccccc1` [Compound 126, 2-(benzofuran-5-ylamino)-4-methyl-thiazole-5-carboxylic acid ((1S,2S)-2-benzyloxycyclopent-1-yl) amide], the hERG came out at 74 at1 μM.

The same data set, now with this note: estimated by Hill fit with hill=1, ymax=100; tested at 10 μM, n=2; read-out: IC50 (μM) hERG.
Take `Cc1nc(Nc2ccc(Br)cc2)sc1C(=O)NCc1ccc(F)c(C(F)(F)F)c1` [Compound 63, 2-(4-bromo-phenylamino)-4-methyl-thiazole-5-carboxylic acid 4-fluoro-3-trifluoromethyl-benzylamide]: the IC50 is 5.29 µM.

For the compound `Cc1nc(Nc2ccc(F)cc2)sc1C(=O)N[C@H](C)c1ccc2ccccc2c1` [Compound 16, 2-(4-fluoro-phenylamino)-4-methyl-thiazole-5-carboxylic acid (R)-1-(naphthalen-2-yl)ethyl amide], the IC50 was 28 µM.

`COc1ccc(OC)c(Nc2nc(C)c(C(=O)N[C@@H]3CCC[C@H]3OCc3ccccc3)s2)c1` [Compound 33, 2-(2,5-dimethoxyphenylamino)-4-methylthiazole-5-carboxylic acid (1R,2R)-2-(benzyloxycyclopent-1-yl) amide]: the IC50 is 33.5 µM.

Take `Cc1nc(Nc2ccc(Cl)cc2)sc1C(=O)N[C@@H](C)c1ccc2ccccc2c1` [Compound 54, 2-(4-chloro-phenylamino)-4-methyl-thiazole-5-carboxylic acid (S)-1-(2-naphtalen-2-yl-ethyl)-amide]: the IC50 was 15.8 µM.

Turning to `COc1cc(CNC(=O)c2sc(Nc3ccc(Br)cc3)nc2C)cc(OC)c1` [Compound 65, 2-(4-bromo-phenylamino)-4-methyl-thiazole-5-carboxylic acid 3,5-dimethoxy-benzylamide], the IC50 is 1.63 µM.

As for `COc1cccc([C@@H](C)NC(=O)c2sc(Nc3cc(Cl)ccc3OC)nc2C)c1` [Compound 34], the IC50 was 8.73 µM.

As to `Cc1nc(Nc2ccc(Br)cc2)sc1C(=O)NCc1cccc2ccccc12` [Compound 56, 2-(4-bromo-phenylamino)-4-methyl-thiazole-5-carboxylic acid (naphtalen-1-yl-methyl)-amide], the IC50 was 7.04 µM.

“2-(4-bromo-phenylamino)-4-methyl-thiazole-5-carboxylic acid 1,2,3,4-tetrahydroisoquinolinamide [Compound 66]”: the half-maximal inhibitory concentration (IC50) is 9.88 µM.

Still in this data set, the particulars now being: patch clamp; read-out: hERG IC50.
Turning to `Cc1nc(Nc2ccc(Cl)cc2)sc1C(=O)N[C@@H](C)c1ccc2ccccc2c1` [Compound 54, 2-(4-chloro-phenylamino)-4-methyl-thiazole-5-carboxylic acid (S)-1-(2-naphtalen-2-yl-ethyl)-amide], the IC50 was 15.8 µM.

Regarding `Cc1nc(Nc2ccc(Br)cc2)sc1C(=O)NCc1cccc2ccccc12` [Compound 56, 2-(4-bromo-phenylamino)-4-methyl-thiazole-5-carboxylic acid (naphtalen-1-yl-methyl)-amide], the IC50 came out at 7.04 µM.

Turning to “2-(4-bromo-phenylamino)-4-methyl-thiazole-5-carboxylic acid 1,2,3,4-tetrahydroisoquinolinamide [Compound 66]”, the IC50 stood at 9.88 µM.

The same data set, now with this note: percent value, test concentration not given.
Turning to `Cc1nc(Nc2cccc3ccccc23)sc1C(=O)N[C@H]1CCC[C@@H]1OCc1ccccc1` [Compound 93], the hERG came out at 59%.

Regarding `Cc1nc(NC(=O)c2ccc(C(C)(C)C)cc2)sc1C(=O)N[C@H]1CCC[C@@H]1OCc1ccccc1` [Compound 180, 2-(4-tert-butyl-benzoylamino)-4-methyl-thiazole-5-carboxylic acid ((1S,2S)-2-benzyloxycyclopent-1-yl) amide], the hERG stood at 64%.

The compound `COc1ccccc1Nc1nc(C)c(C(=O)NCc2ccc(N(C)C)cc2)s1` [Compound 105, 2-(2-methoxy-phenylamino)-4-methyl-thiazole-5-carboxylic acid 4-dimethylamino-benzylamide] gave a hERG of 67%.

For `COc1ccccc1Nc1nc(C)c(C(=O)NCc2ccc3c(c2)CCO3)s1` [Compound 104, 2-(2-methoxy-phenylamino)-4-methyl-thiazole-5-carboxylic acid (2,3-dihydro-benzofuran-5-ylmethyl)-amide], the hERG is 43%.

On to `COc1ccccc1Nc1nc(C)c(C(=O)NCc2c(C)cccc2Cl)s1` [Compound 98, 2-(2-methoxy-phenylamino)-4-methyl-thiazole-5-carboxylic acid 2-chloro-6-methyl-benzylamide], for which the hERG worked out at 38%.

On to `COc1ccccc1Nc1nc(C)c(C(=O)NCc2ccccc2SC)s1` [Compound 97], for which the hERG turned out to be 55%.
